Laboratory results reported in patent publication US12097199B2, “Administration of SUMO-activating enzyme inhibitor and anti-CD20 antibodies” (Takeda Pharmaceutical Company Limited, priority 2018, dated 2024).

Legend:
[1] = system: OCI-Ly10 human diffuse large B-cell lymphoma xenograft; assay: Study 1: OCI-Ly10 xenograft model, in vivo tumor efficacy; parameters: species or system SCID mice; settings: for TGI %: Day 21; for dAUC: unit assumed
Description: OCI-Ly 10 Study 1: OCI-Ly 10 is a human diffuse large B-cell lymphoma cell-line derived xenograft. 6 week old female SCID mice (Beijing HFK Bioscience Co., Ltd.) were inoculated subcutaneously in the right flank (cell suspension) with 4×10^6 OCI-Ly10 cells. When the mean tumor volume reached approximately 200 mm^3, the animals were randomized into treatment and control groups (n=7/group). Tumor growth inhibition and body weight change were calculated on Day 21 of treatment.
(§1) Final doses received were 25 mg/kg or 15 mg/kg, respectively.
(§2) Tumors were measured twice weekly using vernier calipers. Tumor volumes were calculated using standard procedures V=W^2×L/2, where V=volume, W=width, and L=length for the tumor xenograft. […] Tumor size and body weight were measured twice a week for the duration of the study. Mice were euthanized when the average tumor volume of a treatment or control group reached approximately 1000 mm^3 or when an individual tumor exceeded the humane end-point for size.
(§3) These values were compared across treatment groups to assess whether the differences in the trends over time were statistically significant. To compare pairs of treatment groups, the following mixed-effects linear regression model was fit to the data using the maximum likelihood method: Yijk−Yi0k=Yi0k+treati+dayi+dayj^2+(treat*day)ij+(treat*day^2)ij+eijk (1) where Yijk is the log10 tumor value at the j^th time point of the k^th animal in the i^th treatment, Yi0k is the day 0 (baseline) log10 tumor value in the k^th animal in the i^th treatment, day, was the median-centered time point and (along with dayj^2) was treated as a continuous variable, and eijk is the residual error. A spatial power law covariance matrix was used to account for the repeated measurements on the same animal over time. Interaction terms as well as dayj^2 terms were removed if they were not statistically significant.
(§4) The predicted differences in the log tumor values (Yijk−Yi0k, which can be interpreted as log10 (fold change from day 0)) were taken from the above models to calculate mean AUC values for each treatment group. A dAUC value was then calculated as: […]
(§5) For synergy analyses, the observed differences in the log tumor values were used to calculate AUC values for each animal. […] The AUC for the control, or vehicle, group was calculated using the predicted values from the pairwise models described above. We defined a measure of synergy as follows:
(§6) The effect was classified into four different categories. It was considered synergistic if the synergy score was less than 0 and additive if the synergy score wasn't statistically different from 0.
(§7) One group served as the vehicle-treated group (Group 1) receiving IV treatment with the vehicle for I-263a (20% HPβCD) on a QW schedule.

[2] = system: OCI-Ly10 human diffuse large B-cell lymphoma xenograft; assay: Study 2: OCI-Ly10 xenograft model, in vivo tumor efficacy; parameters: species or system SCID mice; settings: for TGI %: Day 21
Description: OCI-Ly10 Study 2: OCI-Ly 10 is a human diffuse large B-cell lymphoma cell-line derived xenograft. 8 week old female SCID mice (Beijing HFK Bioscience Co., Ltd.) were inoculated subcutaneously in the right flank (cell suspension) with 4×10^6 OCI-Ly 10 cells. When the mean tumor volume reached approximately 200 mm^3, the animals were randomized into treatment and control groups (n=8/group). Tumor growth inhibition and body weight change were calculated on Day 21 of treatment.
Final doses received were 10 mg/kg or 5 mg/kg, respectively.
as §2, §3, §4, §5, §6
(§8) In the OCI-Ly 10 diffuse large B-cell lymphoma xenograft model, mice were inoculated, randomized on Day 0 (30 days post inoculation), and treatments began on Day 1 for all groups. […] One group served as the vehicle-treated group (Group 1) receiving IV treatment with the vehicle for I-263a (20% HPβCD) on a QW schedule.

[3] = system: WSU-DLCL2 human diffuse large B-cell lymphoma xenograft; assay: Study 3: WSU-DLCL2 xenograft model, in vivo tumor efficacy; parameters: species or system SCID mice
Description: WSU-DLCL2 Study 3: WSU-DLCL2 is a human diffuse large B-cell lymphoma cell-line derived xenograft. 7 week old female SCID mice (Charles River Laboratories) were inoculated subcutaneously in the right flank (cell suspension with 4.0×10^6 cells). When the mean tumor volume reached approximately 200 mm^3, the animals were randomized into treatment groups and control groups (n=8/group). Tumor growth inhibition and body weight change were calculated on Day 21 of treatment. Tumor volumes below the humane end-point for size were continually monitored following the end of treatment (post-treatment period) for an additional week.
as §2, §3, §4, §5, §6
as §8, with “WSU-DLCL2” for “OCI-Ly 10”, “(8” for “(30”

[4] = system: TMD8 human diffuse large B-cell lymphoma xenograft; assay: Study 4: TMD8 xenograft model, in vivo tumor efficacy; parameters: species or system SCID mice; settings: for TGI %: Day 18
Description: TMD8 Study 4: TMD8 is a human diffuse large B-cell lymphoma cell-line derived xenograft. 8 week old female SCID mice (Beijing HFK Bioscience Co., Ltd) were inoculated subcutaneously in the right flank (cell suspension with 4×10^6 cells). When the mean tumor volume reached approximately 190 mm^3, the animals were randomized into treatment groups and control groups (n=8/group). Tumor growth inhibition and body weight change were calculated on Day 18 of treatment. Tumor volumes below the humane end-point for size were continually monitored following the end of treatment (post-treatment period) for an additional week.
as §1, §2, §3, §4, §5, §6
as §8, with “TMD8” for “OCI-Ly 10”, “(10” for “(30”

[5] = system: PHTX-166L human patient-derived B-cell lymphoma primary xenograft; assay: Study 5: PHTX-166L primary xenograft model, in vivo tumor efficacy; parameters: species or system mice; settings: for TGI %: Day 11
Description: PHTX-166L Study 5: PHTX-166L is a human patient-derived B-cell lymphoma primary xenograft. Small tumor pieces measuring approximately 2 mm×2 mm were implanted subcutaneousy on the right flank via trocar injection. When the mean tumor volume reached approximately 160 mm^3, the animals were randomized into treatment groups and control groups (n=7/group). Tumor growth inhibition and body weight change were calculated on Day 11 of treatment. Tumor volumes below the humane end-point for size were continually monitored following the end of treatment (post-treatment period) until Day 146 post treatment initiation.
as §2, §3, §4, §5, §6
as §8, with “PHTX-166L patient-derived primary” for “OCI-Ly 10 diffuse large”, “(24” for “(30”

[6] = system: PHTX-166L human patient-derived primary B-cell lymphoma xenograft; assay: Study 6: PHTX-166L primary xenograft model, in vivo tumor efficacy; parameters: species or system mice
Description: Small tumor pieces measuring approximately 2 mm×2 mm were implanted subcutaneousy on the right flank via trocar injection.
as §2, §3, §4, §5, §6, §7

SUMO-activating enzyme = SUMO-activating enzyme (Homo sapiens, UniProt Q9UBT2); assay: Biochemical assays of SUMO-activating enzyme inhibition
Sequence of SUMO-activating enzyme (Q9UBT2 whole entry): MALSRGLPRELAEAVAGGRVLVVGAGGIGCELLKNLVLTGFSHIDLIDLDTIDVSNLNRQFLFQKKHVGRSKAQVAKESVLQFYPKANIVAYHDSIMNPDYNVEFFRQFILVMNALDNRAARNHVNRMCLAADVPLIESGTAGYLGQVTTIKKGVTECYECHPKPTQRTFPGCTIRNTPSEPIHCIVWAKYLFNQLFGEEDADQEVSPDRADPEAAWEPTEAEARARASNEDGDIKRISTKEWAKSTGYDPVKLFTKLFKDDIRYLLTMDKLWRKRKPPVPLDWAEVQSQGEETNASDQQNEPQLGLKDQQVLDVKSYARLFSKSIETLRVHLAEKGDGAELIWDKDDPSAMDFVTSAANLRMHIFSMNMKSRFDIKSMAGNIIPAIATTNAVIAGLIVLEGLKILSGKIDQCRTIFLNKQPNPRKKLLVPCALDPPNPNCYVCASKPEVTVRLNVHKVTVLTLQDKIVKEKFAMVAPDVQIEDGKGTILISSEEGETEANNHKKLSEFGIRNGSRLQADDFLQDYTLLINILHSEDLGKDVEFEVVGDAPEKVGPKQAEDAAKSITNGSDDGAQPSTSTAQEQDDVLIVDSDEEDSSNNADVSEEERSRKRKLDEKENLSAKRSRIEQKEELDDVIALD
Sequence of SUMO-activating enzyme (Q9UBE0 whole entry partner): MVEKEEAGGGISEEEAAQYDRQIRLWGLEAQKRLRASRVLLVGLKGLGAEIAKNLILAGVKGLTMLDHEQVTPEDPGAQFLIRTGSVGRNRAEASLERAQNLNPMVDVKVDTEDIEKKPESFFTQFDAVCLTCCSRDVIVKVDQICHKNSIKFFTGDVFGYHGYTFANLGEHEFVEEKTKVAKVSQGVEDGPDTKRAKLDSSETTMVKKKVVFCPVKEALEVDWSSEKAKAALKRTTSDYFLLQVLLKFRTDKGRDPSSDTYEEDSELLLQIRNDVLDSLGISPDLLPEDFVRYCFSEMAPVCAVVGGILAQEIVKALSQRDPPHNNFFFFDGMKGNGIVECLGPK
Sequence of SUMO-activating enzyme (P63165 1-97 partner limits assumed): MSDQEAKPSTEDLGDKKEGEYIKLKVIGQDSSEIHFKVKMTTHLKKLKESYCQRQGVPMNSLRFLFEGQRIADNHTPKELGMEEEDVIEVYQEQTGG
Text: (§9) SAE inhibitors, as disclosed herein, are described, for example, in US 2016/0009744 and U.S. Pat. No. 9,695,154. They may be prepared by methods known to one skilled in the art and/or according to the methods described in US 2016/0009744 and U.S. Pat. No. 9,695,154, which is hereby incorporated by reference in its entirety. Central to the mechanism of action of useful SAE inhibitors, such as Compound I-263a, in combinations and methods of the present disclosure is production of type 1 IFNs and induction of an innate immune response with activation of both natural killer (NK) cells and macrophages.

[7] = system: SUMO-activating enzyme and SUMOylation; assay: Inhibition of SAE and SUMOylation in cultured tumor cell lines; format: cell-based; settings: cultured mouse and human tumor cell lines
Text: as §9

[8] = single-agent I-263a (25 and 15 mg/kg)
[9] = Group C: I-263a 12.5 mg/kg IV QW
[10] = Group B: I-263a 5.0 mg/kg IV QW

In the case of Cc1sc(C(=O)c2cncnc2N[C@@H]2C[C@H](COS(N)(=O)=O)[C@@H](O)C2)cc1[C@@H]1NCCc2ccc(Cl)cc21 [Compound I-263a, [(1R,2S,4R)-4-{[5-({4-[(1R)-7-chloro-1,2,3,4-tetrahydroisoquinolin-1-yl]-5-methyl-2-thienyl}carbonyl)pyrimidin-4-yl]amino}-2-hydroxycyclopentyl]methyl sulfamate], the “Days to 1000 mm^3 MTV” value ([1]; Group B: I-263a 25 mg/kg IV QW) is reported as 39 days, the “Tumor volume on Day 21 (±SEM)” value ([1]; Group B: I-263a 25 mg/kg IV QW) is reported as 409.7 ± 19.2 mm^3 and the TGI % ([1]; Group B: I-263a 25 mg/kg IV QW) is reported as 31.3%. The dAUC ([1]; Group B: I-263a 25 mg/kg IV QW) was 23.6%, the “Days to 1000 mm^3 MTV” value ([1]; Group C: I-263a 15 mg/kg IV QW) was 37.6 days and the “Tumor volume on Day 21 (±SEM)” value ([1]; Group C: I-263a 15 mg/kg IV QW) was 443.7 ± 12.3 mm^3. The TGI % ([1]; Group C: I-263a 15 mg/kg IV QW) was 25.6%, the dAUC ([1]; Group C: I-263a 15 mg/kg IV QW) was 21.4% and the “Day by which all mice were euthanized (group reached 1000 mm^3 or humane end-point for size)” value (“Day by which all mice were euthanized” below) [1, 8] was ≤ 120 days. The “Days to 1000 mm^3 MTV” value ([2]; Group B: I-263a 10 mg/kg IV QW) was 32.1 days, the “Tumor volume on Day 21 (±SEM)” value ([2]; Group B: I-263a 10 mg/kg IV QW) was 706.9 ± 51.3 mm^3 and the dAUC ([2]; Group B: I-263a 10 mg/kg IV QW) was 25.6. The TGI % ([2]; Group B: I-263a 10 mg/kg IV QW) was 41.3%, the “Days to 1000 mm^3 MTV” value ([2]; Group C: I-263a 5 mg/kg IV QW) was 28.7 days and the “Tumor volume on Day 21 (±SEM)” value ([2]; Group C: I-263a 5 mg/kg IV QW) was 759.3 ± 33.2 mm^3. For the same compound, the dAUC ([2]; Group C: I-263a 5 mg/kg IV QW) was 26.8, the TGI % ([2]; Group C: I-263a 5 mg/kg IV QW) was 37% and the “Day by which all mice were euthanized” value ([2]; single-agent I-263a (10 and 5 mg/kg)) was ≤ 35 days. For the same compound, the “Days to 1000 mm^3 MTV” value ([3]; Group B: I-263a 5 mg/kg IV QW) was 17.2 days, the “Tumor volume on Day 21 (±SEM)” value ([3]; Group B: I-263a 5 mg/kg IV QW) was 1340.3 ± 188.1 mm^3 and the dAUC ([3]; Group B: I-263a 5 mg/kg IV QW) was 28.1. The TGI % ([3]; Group B: I-263a 5 mg/kg IV QW, Day 21) was 37.6%, the “Day by which all mice were euthanized” value ([3]; single-agent I-263a 5 mg/kg) was ≤ 24 days and the “Days to 1000 mm^3 MTV” value ([4]; Group B: I-263a 25 mg/kg IV QW) was 14.1 days. The “Tumor volume on Day 18 (±SEM)” value ([4]; Group B: I-263a 25 mg/kg IV QW) was 1297.4 ± 120.2 mm^3, the dAUC ([4]; Group B: I-263a 25 mg/kg IV QW) was 13.6 and the TGI % ([4]; Group B: I-263a 25 mg/kg IV QW) was 27.8%. The “Days to 1000 mm^3 MTV” value ([4]; Group C: I-263a 15 mg/kg IV QW) was 12.8 days, the “Tumor volume on Day 18 (±SEM)” value ([4]; Group C: I-263a 15 mg/kg IV QW) was 1604.1 ± 144.7 mm^3 and the dAUC ([4]; Group C: I-263a 15 mg/kg IV QW) was 10.1. The TGI % ([4]; Group C: I-263a 15 mg/kg IV QW) was 10.7%, the “Day by which all mice were euthanized” value [4, 8] was ≤ 120 days and the “Days to 1000 mm^3 MTV” value ([5]; Group B: I-263a 25 mg/kg IV QW) was >18 days. For the same compound, the dAUC ([5]; Group B: I-263a 25 mg/kg IV QW) was 45.0, the “Tumor volume on Day 11 (±SEM)” value ([5]; Group B: I-263a 25 mg/kg IV QW (Days 1 and 8)) was 540.2 ± 58.5 mm^3 and the TGI % ([5]; Group B: I-263a 25 mg/kg IV QW) was 72%. The “Days to 1000 mm^3 MTV” value [5, 9] was 13.2 days, the dAUC [5, 9] was 35.4 and the “Tumor volume on Day 11 (±SEM)” value ([5]; Group C: I-263a 12.5 mg/kg IV QW (Days 1 and 8)) was 758.2 ± 104.7 mm^3. The TGI % [5, 9] was 60.6%, the “Days to 1000 mm^3 MTV” value [6, 10] was 9.1 days and the dAUC [6, 10] was 34.3. For the same compound, the “Tumor volume on Day 9 (±SEM)” value ([6]; Group B: I-263a 5.0 mg/kg IV QW (Days 1 and 8)) was 992.2 ± 115.2 mm^3, the TGI % ([6]; Group B: I-263a 5.0 mg/kg IV QW, Day 9) was 51.4% and the “Inhibition of SUMO-activating enzyme activity” value (SUMO-activating enzyme; mechanism-based inhibitor forming a covalent adduct with SUMO) was “potently inhibits enzyme activity”. The “Selectivity for SUMO-activating enzyme” value (SUMO-activating enzyme; over ubiquitin-activating enzyme, Nedd8-activating enzyme, and autophagy related 7 enzyme) was “Strong selectivity” and the “Inhibition of SUMO-activating enzyme and SUMOylation in cells” value [7] was “Selective and potent inhibition”.
